We go through three compounds from US20260070911A1, “INHIBITORS OF TAM RECEPTORS” (National Health Research Institutes, priority 2022, published 2026).

The target of one experiment is T1, MERTK (Homo sapiens, UniProt Q12866).
T1 sequence (Q12866 21-999): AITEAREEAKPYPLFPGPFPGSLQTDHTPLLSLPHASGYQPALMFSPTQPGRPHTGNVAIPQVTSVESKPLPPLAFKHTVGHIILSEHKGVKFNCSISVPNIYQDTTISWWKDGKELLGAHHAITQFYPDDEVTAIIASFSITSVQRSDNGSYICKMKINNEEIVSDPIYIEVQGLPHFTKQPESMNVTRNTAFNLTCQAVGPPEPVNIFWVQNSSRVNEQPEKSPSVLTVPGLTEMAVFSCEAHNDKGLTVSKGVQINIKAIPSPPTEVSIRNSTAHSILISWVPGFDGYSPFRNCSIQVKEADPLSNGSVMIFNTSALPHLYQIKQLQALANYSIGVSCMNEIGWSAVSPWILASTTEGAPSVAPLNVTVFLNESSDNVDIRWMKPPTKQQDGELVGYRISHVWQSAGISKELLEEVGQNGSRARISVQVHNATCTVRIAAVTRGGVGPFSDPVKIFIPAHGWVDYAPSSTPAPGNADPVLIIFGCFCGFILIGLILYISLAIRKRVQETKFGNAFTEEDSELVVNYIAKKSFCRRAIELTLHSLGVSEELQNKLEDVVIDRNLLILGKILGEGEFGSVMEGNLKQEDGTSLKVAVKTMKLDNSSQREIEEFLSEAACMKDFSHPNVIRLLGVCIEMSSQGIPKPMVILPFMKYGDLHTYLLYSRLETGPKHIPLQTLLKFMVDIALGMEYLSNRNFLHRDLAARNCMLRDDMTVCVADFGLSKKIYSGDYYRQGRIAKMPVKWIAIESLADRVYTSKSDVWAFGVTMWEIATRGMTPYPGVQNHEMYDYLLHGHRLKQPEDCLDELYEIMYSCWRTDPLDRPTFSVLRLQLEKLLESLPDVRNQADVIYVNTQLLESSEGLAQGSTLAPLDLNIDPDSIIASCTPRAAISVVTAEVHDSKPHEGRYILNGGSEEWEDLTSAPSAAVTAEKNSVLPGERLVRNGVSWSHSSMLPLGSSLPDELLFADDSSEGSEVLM
In words: MERTK enzymatic assay (Kinase Glo). The experiment is classed as biochemical. The following applies: ATP 12 μM. In general terms: Kinase-Glo measures the ATP left after a reaction by luminescence.

The target of a further experiment is T2, TYRO3 (Homo sapiens, UniProt Q06418).
T2 sequence (Q06418 41-890): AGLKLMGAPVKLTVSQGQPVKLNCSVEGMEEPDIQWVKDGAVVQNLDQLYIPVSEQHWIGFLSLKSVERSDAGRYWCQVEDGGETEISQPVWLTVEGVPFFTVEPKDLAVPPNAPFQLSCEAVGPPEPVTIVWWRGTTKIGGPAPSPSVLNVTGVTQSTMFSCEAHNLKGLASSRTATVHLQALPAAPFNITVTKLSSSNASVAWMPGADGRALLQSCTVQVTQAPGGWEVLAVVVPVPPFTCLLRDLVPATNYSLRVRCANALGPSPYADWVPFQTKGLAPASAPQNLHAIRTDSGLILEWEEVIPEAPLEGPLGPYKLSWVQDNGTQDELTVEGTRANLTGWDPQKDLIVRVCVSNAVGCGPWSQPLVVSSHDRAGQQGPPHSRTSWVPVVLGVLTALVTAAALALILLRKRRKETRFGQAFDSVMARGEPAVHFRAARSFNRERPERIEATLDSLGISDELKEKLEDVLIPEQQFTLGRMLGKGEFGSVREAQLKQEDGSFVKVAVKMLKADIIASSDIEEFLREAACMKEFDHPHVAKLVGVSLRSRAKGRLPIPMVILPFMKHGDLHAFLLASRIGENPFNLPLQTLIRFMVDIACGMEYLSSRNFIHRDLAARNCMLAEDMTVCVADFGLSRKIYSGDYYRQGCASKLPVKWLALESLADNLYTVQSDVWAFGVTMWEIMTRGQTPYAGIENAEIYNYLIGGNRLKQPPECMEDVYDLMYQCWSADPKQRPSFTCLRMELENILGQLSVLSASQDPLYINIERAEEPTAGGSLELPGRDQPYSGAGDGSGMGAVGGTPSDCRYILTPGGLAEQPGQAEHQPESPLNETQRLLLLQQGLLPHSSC
In words: TYRO3 enzymatic assay (ADP-Glo). The experiment is classed as biochemical. As to conditions: ATP 50 μM. The method, then:
A study was conducted to compare exemplary compounds of formula (I) in inhibiting TAM activities, including MERTK, AXL, and TYRO3. An enzymatic assay was used in the study. A purified Kinase (i.e., MERTK, AXL, or TYRO3) was incubated with a compound or DMSO (control) for around 15 minutes in an assay buffer (25 mM Tris pH 7.4, 10 mM MgCl2, 4 mM MnCl2, 2 mM DTT, 0.01% BSA, 0.02% TritonX-100, 0.01% Brij35 and 0.5 mM Na3VO4 for MERTK; 40 mM Tris pH 7.4, 20 mM MgCl2, 2 mM DTT, 0.01% BSA and 0.5 mM Na3VO4 for AXL; and 25 mM Tris pH 7.4, 10 mM MgCl2, 4 mM MnCl2, 2 mM DTT, 0.01% BSA and 0.5 mM Na3VO4 for TYRO3). […] The mixture was incubated for 3 hours at 30° C. The luminescence was calculated to determine the kinase activity using a Kinase Glo assay kit for MERTK and an ADP-Glo Kinase assay kit for AXL and TYRO3 following the manufacture's instructions (Promega). Inhibition rates and half maximal inhibitory concentration (IC50) values were calculated. High percentage inhibition rates and low IC50 values are indicatives of high potency of the test compound.
For orientation: ADP-Glo first removes unused ATP, then detects ADP through luciferase.

A further experiment concerns the target T3, AXL (Homo sapiens, UniProt P30530).
T3 sequence (P30530 26-894): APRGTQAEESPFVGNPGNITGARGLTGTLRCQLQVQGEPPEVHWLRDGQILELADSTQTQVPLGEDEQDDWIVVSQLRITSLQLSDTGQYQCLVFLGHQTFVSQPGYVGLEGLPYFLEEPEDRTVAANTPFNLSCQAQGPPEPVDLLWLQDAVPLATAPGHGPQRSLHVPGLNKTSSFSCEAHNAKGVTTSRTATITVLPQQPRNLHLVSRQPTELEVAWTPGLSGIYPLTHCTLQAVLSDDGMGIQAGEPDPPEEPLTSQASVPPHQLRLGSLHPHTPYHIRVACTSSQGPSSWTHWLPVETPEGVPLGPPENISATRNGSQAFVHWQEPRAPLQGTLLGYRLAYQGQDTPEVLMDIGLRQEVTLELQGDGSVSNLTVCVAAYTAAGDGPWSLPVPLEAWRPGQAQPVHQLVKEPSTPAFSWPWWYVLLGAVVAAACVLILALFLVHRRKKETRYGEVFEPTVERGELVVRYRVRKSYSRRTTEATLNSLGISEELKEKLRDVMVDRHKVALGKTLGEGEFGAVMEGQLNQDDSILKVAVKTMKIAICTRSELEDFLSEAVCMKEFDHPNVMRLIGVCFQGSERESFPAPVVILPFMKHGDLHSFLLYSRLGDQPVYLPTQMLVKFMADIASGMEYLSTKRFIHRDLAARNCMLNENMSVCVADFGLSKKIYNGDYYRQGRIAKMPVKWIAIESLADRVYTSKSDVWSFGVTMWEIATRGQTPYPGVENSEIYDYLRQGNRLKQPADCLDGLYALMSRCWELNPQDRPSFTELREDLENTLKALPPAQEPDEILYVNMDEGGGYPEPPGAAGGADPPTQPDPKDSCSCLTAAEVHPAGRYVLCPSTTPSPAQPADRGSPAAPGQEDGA
Nature of the experiment: AXL enzymatic assay (ADP-Glo). The format is biochemical. The following applies: ATP 50 μM.

A further experiment deals with MER/AXL. In words: Dual MER/AXL inhibition (enzymatic). The following applies: class for both MER and AXL. The experiment is classed as biochemical.
A further experiment relates to MC38 murine colon tumor. Nature of the experiment: Immune modulatory activity in MC38 murine colon tumor model. The format is in vivo, C57BL/6J mice. As to conditions: 50 mg/kg orally twice per day for five days. On the procedure: Female C57BL/6J mice between 8-10 weeks of age were used. Murine colon tumor MC38 cells were detected as free of Mycoplasma spp prior to injection into animals. MC38 cells at 10^5 cells per mouse in 100 μL culture medium were implanted subcutaneously into the left flank region of mice with a 25⅝-gauge needle (n=5-6 animals per group). […] Treatments were initiated after randomization with inclusion of tumors at approximately 150 mm^3. Tumor growths were measured with an electronic caliper and volumes are calculated as L×W×W/2. Tumor size and animal body weight were measured twice a week after tumor cell inoculation. All experiments were conducted in accordance with the protocols approved by National Health Research Institutes' Institutional Animal Care and Use Committee.
Ten days after the treatment, the tumor cells and spleen cells in the mice were collected to study effect of this compound on the immune cells, i.e., tumor-associated macrophages and T cells. Briefly, tumor and spleen from vehicle control and Compound 11 were harvested and isolated into single cells. Single cell suspension were pre-incubated with mouse Fc receptor blocker before staining with appropriate antibody conjugate for Cd45, Cd3, Cd4, Cd8, F4/80, Cd11b, Cd86, AXL, MERTK and analyzed by flow cytometry to quantify the accumulation of immune cells including Cd4 (Cd3^+Cd4^+), Cd8 (Cd3^+Cd8^+), macrophages (Cd11b^+F4/80^+), tumor associated macrophage (M2, Cd11b^+F4/80^+Cd206^+), classical macrophage (M1, Cd11b^+F4/80+/Cd86^+) populations. For intracellular staining of analysis of tumor-associated macrophage marker Cd206 expression, cells were fixed by using Cytofix/Cytoperm™ kit (BD Biosciences, Franklin Lakes, New Jersey) after surface marker staining and then stain with anti-mouse Cd206 antibody conjugate. Live/dead fixable dye were used to exclude non-viable cells from the analyses.

The next experiment concerns MDA-MB-231 TNBC cells. Nature of the experiment: In vivo activity against breast cancer (MDA-MB-231 xenograft). Further details: species or system NOD/SCID mice. The following applies: day 35 after the treatment, from 150 mm^3 (control 600 mm^3). On the procedure:
Compound 11 was further evaluated for its in vivo efficacy in treating breast cancer. MDA-MB-231 TNBC cell lines were used. Prior to injection into animals, the cancer cells were detected as free of Mycoplasma spp. Five million MDA-MB-231 cells in culture medium and matrigel (1:1, v/v) were injected subcutaneously into the left flank region of the NOD/SCID mice (n=8 animals per group). Treatments were initiated after randomization with inclusion of tumors at approximately 150 mm^3. The compound was prepared using 10% DMA: 40% PEG400:50% (1% CMC) (v/v/v).
Each group was administered orally twice a day for five days. Control animals were orally administered with vehicle only. Tumor growths were measured with an electronic caliper and volumes were calculated as L×W×W/2. Tumor size and animal body weight were measured twice a week after tumor cell inoculation.

The test system of the next experiment is MC-38 murine colon tumor. In words: In vivo activity against colon tumor (MC38). Set-up: species or system C57BL/6J mice. As to conditions: day 17 after the treatment; 50 mg/kg orally twice a day for 5 days; control 2000 mm^3. The method, then: Compound 11 was evaluated for its in vivo efficacy in treating colon tumor. Female C57BL/6J mice between 8-10 weeks of age were used. Murine colon tumor MC38 cells were detected as free of Mycoplasma spp prior to injection into animals. MC38 cells at 10^5 cells per mouse in 100 μL culture medium were implanted subcutaneously into the left flank region of mice with a 25⅝-gauge needle (n=8 animals per group). […] Treatments were initiated after randomization with inclusion of tumors at approximately 50 mm^3.
Control animals were orally administered with vehicle only. Tumor growths were measured with an electronic caliper and volumes were calculated as L×W×W/2. Tumor size and animal body weight were measured twice a week after tumor cell inoculation. After the treatment, tumor volumes and body weight changes were measured.

The mark [1] stands for this setting: purified kinase, read-out: MER Enzymatic Inhibition (%).
Setting [2] is: purified kinase, read-out: AXL Enzymatic Inhibition (%).

Where two headings read alike, the source gives them in different places.

As for `Nc1cccc(-c2c[nH]c3ncnc(Oc4ccc(NC(=O)c5cccn(-c6ccc(F)cc6)c5=O)cc4)c23)c1` [Compound 3], the IC50 is 11.6 nM on MERTK (read-out: IC50 MERTK); less than 20 nM at MERTK (setting [1]); 18.3 nM at TYRO3; 12.9 nM at AXL (read-out: IC50 AXL); less than 20 nM at AXL (setting [2]); less than 20 nM in the experiment with MER/AXL.

Take `CC(=O)Nc1cccc(-c2c[nH]c3ncnc(Oc4ccc(NC(=O)c5cccn(-c6ccc(F)cc6)c5=O)cc4)c23)c1` [Compound 4]: the IC50 is 22.9 nM on MERTK (read-out: IC50 MERTK); 20 to 100 nM on MERTK (setting [1]); 15.6 nM on TYRO3; 10.5 nM at AXL (read-out: IC50 AXL); less than 20 nM on AXL (setting [2]); 20 to 100 nM with MER/AXL.

`Cn1cc(-c2oc3ncnc(Oc4ccc(NC(=O)c5cccn(-c6ccc(F)cc6)c5=O)cc4)c3c2-c2cccc(N)c2)cn1` [Compound 11, N-(4-{[5-(3-aminophenyl)-6-(1-methyl-1H-pyrazol-4-yl)furo[2,3-d]pyrimidin-4-yl]oxy}phenyl)-1-(4-fluorophenyl)-2-oxo-1,2-dihydropyridine-3-carboxamide]: the “expression of MERTK in CD4+ T cells (spleen)” value in the experiment with MC38 murine colon tumor (decreased from 7%) is 3%. Further, the “level of M2-phenotype macrophages in the tumor cells” value with MC38 murine colon tumor (decreased from 10%) is reported as 5%. For the same compound, the “expression of AXL in CD8+ T cells (spleen)” value in the experiment with MC38 murine colon tumor (decreased from 13%) is given as 5%. Also, the “level of macrophages in the tumor cells” value in the experiment with MC38 murine colon tumor (decreased from 18%) was determined as 13%. The “expression of MERTK in CD8+ T cells (spleen)” value in the experiment on MC38 murine colon tumor (decreased from 32%) was 20%. The “expression of AXL in CD4+ T cells (spleen)” value with MC38 murine colon tumor (decreased from […]) stood at 0.7%. Moreover, the “level of CD4+ T cells in the spleen cells” value in the experiment with MC38 murine colon tumor (increased from 5%) is listed as 10%. Also, the “level of CD8+ T cells in the spleen cells” value in the experiment on MC38 murine colon tumor (increased from 18%) is reported as 28%. Besides, the “level of total T cells in the spleen cells” value with MC38 murine colon tumor (increased from 30%) was found to be 43%. In the experiment with MC38 murine colon tumor (10 days after treatment, from 200 mm^3 (vehicle 1000 mm^3)), this compound showed a tumor size of 350 mm^3. Besides, the results for the tumor volume in the experiment with MDA-MB-231 TNBC cells (25 mg/kg orally twice a day for five days), in the experiment with MDA-MB-231 TNBC cells (50 mg/kg orally twice a day for five days) and in the experiment on MC-38 murine colon tumor were 300 mm^3, 220 mm^3 and 300 mm^3, respectively.
